According to ChEMBL document CHEMBL1152087, “Inhibition of mevalonate 5-pyrophosphate decarboxylase by a proline-containing transition state analog” (Bioorg Med Chem Lett, 1996):

Tests used:
[1] = target: T1, Diphosphomevalonate decarboxylase (Homo sapiens, UniProt P53602); test: Compound was evaluated for its inhibitory activity against Mevalonate 5-pyrophosphate decarboxylase
T1 sequence (P53602 whole entry): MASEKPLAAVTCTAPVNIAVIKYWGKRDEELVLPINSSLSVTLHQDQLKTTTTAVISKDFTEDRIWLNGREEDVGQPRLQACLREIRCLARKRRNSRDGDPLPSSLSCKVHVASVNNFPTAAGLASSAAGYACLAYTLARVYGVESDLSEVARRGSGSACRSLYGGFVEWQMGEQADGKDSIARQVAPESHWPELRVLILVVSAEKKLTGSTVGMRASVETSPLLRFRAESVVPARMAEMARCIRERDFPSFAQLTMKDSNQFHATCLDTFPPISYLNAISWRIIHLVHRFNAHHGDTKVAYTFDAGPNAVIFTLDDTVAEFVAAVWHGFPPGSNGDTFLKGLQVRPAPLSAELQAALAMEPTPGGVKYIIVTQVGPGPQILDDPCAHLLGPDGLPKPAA

[2] = target: T1, Diphosphomevalonate decarboxylase; test: Compound was evaluated for its inhibitory activity against MevPP decarboxylase

Structure (SMILES) | IC50 [1] | IC50 [2]
O=C(O)CSCCOP(=O)(O)OP(=O)(O)O | 150 nM | 
CN(CC(=O)O)C(=O)COP(=O)(O)OP(=O)(O)O |  | 300 nM
